PubChem BioAssay (NCI)
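Cells were grown in 96-well plates and exposed to each compound for 48 hours at five concentrations; endpoints were interpolated linearly between bracketing concentrations, or set to the highest concentration if not reached. GI50: concentration for 50% inhibition of growth. TGI: concentration producing complete growth inhibition.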

Tests used:
Experiment in all cases: NCI tumour cell line growth inhibition, 48 h
[1] = system: IGROV1 ovarian
[2] = system: HT29 colon
[3] = system: COLO 205 colon
[4] = system: MOLT-4 leukemia
[5] = system: RXF 393 renal
[6] = system: UACC-62 melanoma
[7] = system: SK-OV-3 ovarian
[8] = system: RPMI-8226 leukemia
[9] = system: SR leukemia
[10] = system: T-47D breast

`C/C(CC(=O)Nc1cccc(Cl)c1C)=N\NC(N)=S` gave a TGI [1] greater than 100 µM, a TGI [2] greater than 100 µM and a TGI [3] greater than 100 µM. It also gave a TGI [4] greater than 100 µM, a TGI [5] greater than 100 µM and a TGI [6] greater than 100 µM. The TGI [7] was greater than 100 µM and the TGI [8] was greater than 100 µM.
`COC1C(OC(=O)c2ccc(C)[nH]2)C(O)C(Oc2ccc3c(O)c(NC(=O)c4c[nH]c(C(=O)Nc5c(O)c6ccc(OC7OC(C)(C)C(OC)C(OC(=O)c8ccc(C)[nH]8)C7O)c(C)c6oc5=O)c4C)c(=O)oc3c2C)OC1(C)C` (stereo not drawn) showed a TGI [1] of 3.62 µM, a TGI [2] of 16.1 µM and a TGI [3] of 4.38 µM. The TGI [4] was 8.47 µM, the TGI [5] was 2.23 µM and the TGI [6] was 2.37 µM. It also gave a TGI [7] of 4.58 µM and a TGI [8] of 4.83 µM.
Compound `C#CC1(O)CCC2C3CCc4cc(Oc5nc(F)nc(-c6c7ccccc7c7n6CCS7)n5)ccc4C3CC[C@@]21C` (stereo partly drawn) has a TGI [1] greater than 100 µM, a TGI [2] of 73.7 µM and a TGI [3] of 70 µM. The TGI [4] was greater than 100 µM, the TGI [6] was 86.2 µM and the TGI [9] was 92.3 µM. For the same compound, the TGI [8] was 57.5 µM.
For `COc1ccc2c(c1)/C(=C\c1ccncc1)C(=O)N2`, the GI50 [1] was 4.15 µM, the TGI [1] was 9.37 µM and the GI50 [10] was 22.3 µM. The TGI [10] was greater than 100 µM, the GI50 [3] was 11.9 µM and the TGI [3] was 44.7 µM. For the same compound, the GI50 [6] was 4.46 µM, the TGI [6] was 17.2 µM and the GI50 [7] was 19.5 µM. It also gave a TGI [7] of 79.9 µM, a GI50 [8] of 10.2 µM and a TGI [8] of 77.1 µM.
Work on `[N-]=[N+]=NC(c1cn(C2CC(O)C(CO)O2)c(=O)[nH]c1=O)C(Cl)Br` (stereo not drawn) yielded a TGI [2] greater than 100 µM, a TGI [3] greater than 100 µM and a TGI [4] greater than 100 µM. The TGI [5] was greater than 100 µM, the TGI [9] was greater than 100 µM and the TGI [8] was greater than 100 µM.
`CN(C)Cc1ccc(-c2cc3onc(-c4ccccc4)c3c(=O)n2C)cc1` was tested, and the TGI [1] was greater than 100 µM, the TGI [10] was 58.4 µM and the TGI [2] was 29.8 µM. It also gave a TGI [3] of 41.1 µM, a TGI [4] of 49.2 µM and a TGI [6] of 75 µM. For the same compound, the TGI [7] was greater than 100 µM, the TGI [9] was 34 µM and the TGI [8] was 54.9 µM.
`COc1cc2c(cc1OC)C(C(=O)O)C(c1ccccc1)N(C)C2=O` (stereo not drawn) was tested, and the TGI [1] was greater than 100 µM, the TGI [2] was greater than 100 µM and the TGI [3] was greater than 100 µM. It also gave a TGI [4] greater than 100 µM, a TGI [6] greater than 100 µM and a TGI [7] greater than 100 µM. It also gave a TGI [8] greater than 100 µM.
`NC(=N\N=C/c1ccc(O)cc1)/C(N)=N\N=C/c1ccc(O)cc1` was tested, and the GI50 [1] was greater than 59.6 µM, the TGI [1] was greater than 100 µM and the GI50 [10] was 13.6 µM. It also gave a TGI [10] greater than 100 µM, a GI50 [2] greater than 100 µM and a TGI [2] greater than 100 µM. For the same compound, the GI50 [3] was greater than 93.5 µM, the TGI [3] was greater than 100 µM and the GI50 [4] was 0.623 µM. The TGI [4] was greater than 100 µM, the GI50 [5] was 84.7 µM and the TGI [5] was greater than 100 µM. It also gave a GI50 [6] of 2.22 µM, a TGI [6] greater than 52 µM and a GI50 [7] of 44.8 µM. It also gave a TGI [7] greater than 100 µM, a GI50 [8] greater than 24.8 µM and a TGI [8] greater than 100 µM.
Work on `COc1cc2c(cc1OC)-c1ncc3c(OC)ccc(OC)c3c1C2` yielded a GI50 [1] of 13.9 µM, a TGI [1] of 48.5 µM and a GI50 [10] of 29 µM. For the same compound, the TGI [10] was greater than 100 µM, the GI50 [3] was 42.7 µM and the TGI [3] was greater than 100 µM. For the same compound, the GI50 [5] was 16.4 µM, the TGI [5] was 48.9 µM and the GI50 [6] was 18 µM. It also gave a TGI [6] greater than 100 µM, a GI50 [7] of 37.3 µM and a TGI [7] of 98.7 µM. The GI50 [8] was 6.44 µM and the TGI [8] was 78.2 µM.
`C=CCn1c(=S)sc2c(C(=O)OCC)c3c(C)cc(C)cn3c2c1=O` showed a TGI [1] greater than 100 µM, a TGI [2] greater than 100 µM and a TGI [3] greater than 100 µM. For the same compound, the TGI [4] was greater than 100 µM, the TGI [5] was greater than 100 µM and the TGI [6] was greater than 100 µM. The TGI [7] was greater than 100 µM, the TGI [9] was greater than 100 µM and the TGI [8] was greater than 100 µM.
`CCCn1c2c(c3c(O)cccc31)C(=O)c1ccccc1-2` gave a GI50 [1] of 10.9 µM, a TGI [1] greater than 100 µM and a GI50 [10] of 10 µM. The TGI [10] was greater than 100 µM, the GI50 [2] was 29.7 µM and the TGI [2] was greater than 100 µM. For the same compound, the GI50 [3] was greater than 100 µM, the TGI [3] was greater than 100 µM and the GI50 [4] was 0.0475 µM. For the same compound, the TGI [4] was 7.31 µM, the GI50 [6] was 15.2 µM and the TGI [6] was 69.3 µM. For the same compound, the GI50 [7] was 23.7 µM, the TGI [7] was greater than 100 µM and the GI50 [9] was 0.0354 µM. For the same compound, the TGI [9] was 23.8 µM, the GI50 [8] was 7.34 µM and the TGI [8] was greater than 100 µM.
`CCC(=O)N1C/C(=C/c2ccc(Cl)cc2)C(=O)/C(=C/c2ccc(Cl)cc2)C1` was tested, and the GI50 [1] was 0.998 µM, the TGI [1] was 2.55 µM and the GI50 [10] was 1.38 µM. It also gave a TGI [10] of 3.27 µM, a GI50 [2] of 0.248 µM and a TGI [2] of 0.622 µM. The GI50 [3] was 0.757 µM, the TGI [3] was 1.95 µM and the GI50 [4] was 0.974 µM. The TGI [4] was 5.87 µM, the GI50 [5] was 0.723 µM and the TGI [5] was 2.08 µM. The GI50 [6] was 0.728 µM, the TGI [6] was 1.94 µM and the GI50 [7] was 1.83 µM. It also gave a TGI [7] of 3.76 µM, a GI50 [8] of 0.101 µM and a TGI [8] of 0.911 µM.
In the case of `C/C(CC(=O)NCCc1ccccc1)=N\NS(=O)(=O)c1ccc(C)cc1`, the TGI [1] is reported as greater than 100 µM, the TGI [2] is reported as greater than 100 µM and the TGI [3] is reported as greater than 100 µM. It also gave a TGI [4] greater than 100 µM, a TGI [5] greater than 100 µM and a TGI [6] greater than 100 µM. It also gave a TGI [7] greater than 100 µM and a TGI [8] greater than 100 µM.
Work on `CCO/C=C1\N=C(c2ccc(Cl)c(Cl)c2)OC1=O` yielded a TGI [1] greater than 100 µM, a TGI [2] greater than 100 µM and a TGI [3] greater than 100 µM. The TGI [4] was greater than 100 µM, the TGI [5] was greater than 100 µM and the TGI [6] was greater than 100 µM. The TGI [8] was greater than 100 µM.
Work on `ClC(Cl)=C(Cl)C1(Cl)CC1COCc1ccccc1` (stereo not drawn) yielded a TGI [1] greater than 100 µM, a TGI [2] of 86.3 µM and a TGI [3] of 61.1 µM. For the same compound, the TGI [4] was 55.1 µM, the TGI [5] was 59.6 µM and the TGI [6] was 69.5 µM. The TGI [7] was greater than 100 µM and the TGI [8] was 44.2 µM.
`COc1ccccc1/C=C1\COc2ccc(-c3ccccc3)cc2C1=O` gave a GI50 [1] of 4.69 µM, a TGI [1] greater than 100 µM and a GI50 [10] of 2.83 µM. For the same compound, the TGI [10] was greater than 100 µM, the GI50 [3] was 3.57 µM and the TGI [3] was 13 µM. For the same compound, the GI50 [4] was 2.16 µM, the TGI [4] was greater than 100 µM and the GI50 [6] was 4.39 µM. For the same compound, the TGI [6] was 45.2 µM, the GI50 [7] was 3.7 µM and the TGI [7] was greater than 100 µM. The GI50 [9] was 1.31 µM, the TGI [9] was greater than 100 µM and the GI50 [8] was 2.83 µM. It also gave a TGI [8] greater than 100 µM.
`CNC(=O)NCC1OC(n2cnc3c(NC(=O)Nc4ccccc4)ncnc32)C(O[Si](C)(C)C(C)(C)C)C1O[Si](C)(C)C(C)(C)C` (stereo not drawn) gave a GI50 [1] of 2.74 µM, a TGI [1] of 7.76 µM and a GI50 [10] of 2.87 µM. It also gave a TGI [10] of 10.3 µM, a GI50 [2] of 2.02 µM and a TGI [2] of 3.74 µM. For the same compound, the GI50 [3] was 1.89 µM, the TGI [3] was 3.36 µM and the GI50 [5] was 2.14 µM. It also gave a TGI [5] of 4.01 µM, a GI50 [6] of 3.98 µM and a TGI [6] of 23.6 µM. The GI50 [7] was 6.88 µM, the TGI [7] was greater than 100 µM and the GI50 [8] was 3.27 µM. For the same compound, the TGI [8] was greater than 100 µM.
In the case of `COC(=O)CCC(NC(=S)N/N=C(\C)c1ccc[nH]1)C(=O)OC` (stereo not drawn), the TGI [1] is reported as greater than 100 µM, the TGI [2] is reported as greater than 100 µM and the TGI [3] is reported as greater than 100 µM. For the same compound, the TGI [4] was greater than 100 µM, the TGI [5] was greater than 100 µM and the TGI [6] was greater than 100 µM. It also gave a TGI [7] greater than 100 µM.
With `O=[N+]([O-])/C=C/c1c(Cl)cccc1Cl` the TGI [1] was 10.3 µM, the TGI [10] was 9.39 µM and the TGI [2] was 26 µM. For the same compound, the TGI [3] was 1.76 µM, the TGI [5] was greater than 21.8 µM and the TGI [6] was 8.14 µM. It also gave a TGI [7] of 35.5 µM and a TGI [8] of 0.514 µM.
`C=CC(=O)N1C/C(=C\c2ccc(Cl)c(Cl)c2)C(=O)/C(=C/c2ccc(Cl)c(Cl)c2)C1` gave a TGI [1] of 0.263 µM, a TGI [2] of 0.323 µM and a TGI [3] of 0.243 µM. For the same compound, the TGI [4] was 0.38 µM, the TGI [5] was 0.299 µM and the TGI [6] was 0.687 µM. The TGI [7] was 1.61 µM, the TGI [9] was 0.0648 µM and the TGI [8] was 0.0983 µM.
